Source: US7776918B2, “Remedy for viral disease” (Chugai Seiyaku Kabushiki Kaisha, priority 2003, dated 2010)

test system: Candida albicans; test: not given; settings: known from WO98/56755; cited from earlier work

Row | SMILES | antimicrobial activity against Candida albicans
1 | CCCCCCCC(=O)CCCCCC/C=C/[C@H](C(=O)N[C@@H](Cc1ccc(OCC=C(C)C)cc1)C(=O)O)[C@@](O)(CC(=O)O)C(=O)O [Compound 1] | antimicrobial activity

test system: Firefly luciferase HCV replicon cells (3-1); test: Cytotoxicity test (Cell Counting Kit-8); assay type: cell-based; settings: Cell Counting Kit-8, absorbance 450 nm, after 3 days culture with compound
Description: (§1) Firefly luciferase HCV replicon cells (3-1) were suspended in Dulbecco's MEM (Gibco Cat. No. 10569-010) containing 5% fetal calf serum (Hyclone Cat. No. SH30071.03) and inoculated into a 96-well plate at 5000 cells/well followed by culturing overnight at 5% CO2 and 37° C. After about 20 hours, 10 μl of a diluted compound was added to each well followed by additional culturing for 3 days. Two series of the assay plates were prepared, and assay was conducted using white plates for one series while using clear plates for the other series. Following completion of culturing, the white plates were used with the Steady-Glo Luciferase Assay System (Promega Cat. No. E2520). More specifically, 100 μl of reagent was placed in each well and after mixing 3 to 4 times with a pipette and allowing to stand for 5 minutes, luminescence was measured with the 1450 MicroBeta TRILUX (WALLAC). The value in the absence of cell addition was used to indicate the background value, and that value was subtracted from all values to calculate the IC50 value (concentration resulting in 50% inhibition) of the drug based on 0% inhibition for the value obtained in the absence of drug addition.
(§2) The Cell Counting Kit-8 (Dojindo Cat. No. CK04) was used for measurement of cytotoxicity. More specifically, 10 μl of the Cell Counting Kit-8 was added to the clear plates followed by incubating at 37° C. for 30 to 60 minutes. Absorbance at a wavelength of 450 nm and control wavelength of 630 nm was measured with a 96-well plate reader. The value obtained in the absence of cell addition was used as a background value, and that value was subtracted from all values to calculate the CC50 value (concentration resulting in 50% cell inhibition) of the drug based on 0% inhibition for the value obtained in the absence of drug addition.

Row | SMILES | CC50 [nM]
2 | CC#CCOc1ccc(C[C@H](NC(=O)[C@@H](/C=C/CCCCCCC(=O)CCCCCCC)[C@@](O)(CC(=O)O)C(=O)O)C(=O)O)cc1 [Compound 21] | > 5000
3 | CCCCCCCC(=O)CCCCCC/C=C/[C@H](C(=O)N[C@@H](Cc1ccc(OC)c(OC)c1)C(=O)O)[C@@](O)(CC(=O)O)C(=O)O [Compound 22] | > 1000

test system: not listed separately; test: Cytotoxicity test (Cell Counting Kit-8); assay type: cell-based; settings: human, Firefly luciferase HCV replicon cells (3-1); Cell Counting Kit-8, absorbance 450 nm, after 3 days culture with compound
Description: as §1, §2

Row | SMILES | CC50 at 3 days [nM]
4 | CCCCCCCCCCCCCC/C=C/[C@H](C(=O)N[C@@H](Cc1ccc(OCC=C(C)C)cc1)C(=O)O)[C@@](O)(CC(=O)O)C(=O)O (mixture of isomers) [Compound 13] | > 50000
5 | CCCCCCCC(=O)CCCCCC/C=C/[C@H](C(=O)N[C@@H](Cc1ccc(OCC=C(C)C)cc1)C(=O)O)[C@@](O)(CC(=O)O)C(=O)O [Compound 1] | > 5000
6 | CCCCCCCC(=O)CCCCCC/C=C/[C@H](C(=O)N[C@@H](Cc1ccc(OCC=C(C)C)cc1)C(=O)O)[C@@](O)(CC(=O)OC)C(=O)O [Compound 2] | > 1000
7 | CCCCCCCC(=O)CCCCCC/C=C/[C@H](C(=O)N[C@@H](Cc1ccc(OCC=C(C)C)cc1)C(=O)OC)[C@@](O)(CC(=O)OC)C(=O)O [Compound 3] | > 1000
8 | CCCCCCC(O)C(=O)CCCCCC/C=C/[C@H](C(=O)N[C@@H](Cc1ccc(O)cc1)C(=O)O)[C@@](O)(CC(=O)O)C(=O)O (stereo partly shown) [Compound 4] | > 1000
9 | CCCCCCCC(=O)CCCCCC/C=C/[C@H](C(=O)N[C@@H](Cc1c[nH]c2ccccc12)C(=O)O)[C@@](O)(CC(=O)O)C(=O)O [Compound 5] | > 1000
10 | CCCCCCC(O)C(=O)CCCCCC/C=C/[C@H](C(=O)N[C@@H](Cc1ccc(OCC=C(C)C)cc1)C(=O)O)[C@@](O)(CC(=O)O)C(=O)O (stereo partly shown) [Compound 6] | > 1000
11 | CCCCCCCC(=O)CCCCCC/C=C/[C@H](C(=O)N[C@@H](Cc1ccc(OCCC(C)C)cc1)C(=O)O)[C@@](O)(CC(=O)O)C(=O)O [Compound 7] | > 5000
12 | CCCCCCCC(O)CCCCCC/C=C/[C@H](C(=O)N[C@@H](Cc1ccc(OCC=C(C)C)cc1)C(=O)O)[C@@](O)(CC(=O)O)C(=O)O (stereo partly shown) [Compound 8] | > 5000
13 | CCCCCCCC(=O)CCCCCC/C=C/[C@H](C(=O)N[C@@H](Cc1ccc(O)cc1)C(=O)O)[C@@](O)(CC(=O)O)C(=O)O [Compound 9] | > 5000
14 | CCCCCCCC(=O)CCCCCCCC[C@H](C(=O)N[C@@H](Cc1ccc(O)cc1)C(=O)O)[C@@](O)(CC(=O)O)C(=O)O [Compound 10] | > 50000
15 | CCCCCCCC(=O)CCCCCC/C=C/[C@H](C(=O)N[C@@H](Cc1ccc(OCC=C(C)C)cc1)C(N)=O)[C@@](O)(CC(N)=O)C(N)=O [Compound 11] | > 5000
16 | CCCCCCCC(=O)CCCCCCCC[C@H](C(=O)N[C@@H](Cc1ccc(OCCC(C)C)cc1)C(=O)O)[C@@](O)(CC(=O)O)C(=O)O [Compound 12] | > 5000
17 | CCCCCCC/C(CCCCCC/C=C/[C@H](C(=O)N[C@@H](Cc1ccc(OCC=C(C)C)cc1)C(=O)O)[C@@](O)(CC(=O)O)C(=O)O)=N/OCCN [Compound 14] | 22000
18 | CCCCCCCC(CCCCCC/C=C/[C@H](C(=O)N[C@@H](Cc1ccc(OCC=C(C)C)cc1)C(=O)O)[C@@](O)(CC(=O)O)C(=O)O)=NOC [Compound 15] | > 50000
19 | CCCCCCCC(=O)CCCCCC/C=C/[C@H](C(=O)N[C@@H](Cc1ccc(OCCCC)cc1)C(=O)O)[C@@](O)(CC(=O)O)C(=O)O [Compound 23] | > 1000
20 | CCCCCCCC(=O)CCCCCC/C=C/[C@H](C(=O)N[C@@H](Cc1ccc(OCCC)cc1)C(=O)O)[C@@](O)(CC(=O)O)C(=O)O [Compound 24] | > 1000
21 | C=CCOc1ccc(C[C@H](NC(=O)[C@@H](/C=C/CCCCCCC(=O)CCCCCCC)[C@@](O)(CC(=O)O)C(=O)O)C(=O)O)cc1 [Compound 25] | > 1000
22 | CCCCCCCC(=O)CCCCCC/C=C/[C@H](C(=O)N[C@@H](Cc1ccc(OC)cc1)C(=O)O)[C@@](O)(CC(=O)O)C(=O)O [Compound 26] | > 1000

test system: Firefly luciferase HCV replicon cells (3-1); test: Replicon assay (firefly luciferase HCV replicon); assay type: cell-based; settings: Hepatitis C virus, 72 h; luciferase luminescence after 3 days culture with compound, Huh7-derived replicon cells
Description: A construct was prepared in which luciferase gene derived from firefly was inserted as a reporter gene in HCV-RNA to assay the number of copies of HCV-RNA. The luciferase gene was inserted in a form that fuses with the neomycin resistance gene directly below IRES (Internal Ribosome Entry Site) of HCV gene in accordance with the method of Krieger, et al. (J. Virol. 75: 4614). After synthesizing the RNA in vitro, it was introduced into Huh7 cells by electroporation followed by isolation as G418 resistant clone.
as §1

Row | SMILES | IC50 [nM]
23 | CCCCCCCCCCCCCC/C=C/[C@H](C(=O)N[C@@H](Cc1ccc(OCC=C(C)C)cc1)C(=O)O)[C@@](O)(CC(=O)O)C(=O)O (mixture of isomers) [Compound 13] | 100
24 | CCCCCCCC(=O)CCCCCC/C=C/[C@H](C(=O)N[C@@H](Cc1ccc(OCC=C(C)C)cc1)C(=O)O)[C@@](O)(CC(=O)O)C(=O)O [Compound 1] | 2
25 | CCCCCCCC(=O)CCCCCC/C=C/[C@H](C(=O)N[C@@H](Cc1ccc(OCC=C(C)C)cc1)C(=O)O)[C@@](O)(CC(=O)OC)C(=O)O [Compound 2] | 128
26 | CCCCCCCC(=O)CCCCCC/C=C/[C@H](C(=O)N[C@@H](Cc1ccc(OCC=C(C)C)cc1)C(=O)OC)[C@@](O)(CC(=O)OC)C(=O)O [Compound 3] | 76
27 | CCCCCCC(O)C(=O)CCCCCC/C=C/[C@H](C(=O)N[C@@H](Cc1ccc(O)cc1)C(=O)O)[C@@](O)(CC(=O)O)C(=O)O (stereo partly shown) [Compound 4] | 103
28 | CCCCCCCC(=O)CCCCCC/C=C/[C@H](C(=O)N[C@@H](Cc1c[nH]c2ccccc12)C(=O)O)[C@@](O)(CC(=O)O)C(=O)O [Compound 5] | 82
29 | CCCCCCC(O)C(=O)CCCCCC/C=C/[C@H](C(=O)N[C@@H](Cc1ccc(OCC=C(C)C)cc1)C(=O)O)[C@@](O)(CC(=O)O)C(=O)O (stereo partly shown) [Compound 6] | 7
30 | CCCCCCCC(=O)CCCCCC/C=C/[C@H](C(=O)N[C@@H](Cc1ccc(OCCC(C)C)cc1)C(=O)O)[C@@](O)(CC(=O)O)C(=O)O [Compound 7] | 2
31 | CCCCCCCC(O)CCCCCC/C=C/[C@H](C(=O)N[C@@H](Cc1ccc(OCC=C(C)C)cc1)C(=O)O)[C@@](O)(CC(=O)O)C(=O)O (stereo partly shown) [Compound 8] | 5
32 | CCCCCCCC(=O)CCCCCC/C=C/[C@H](C(=O)N[C@@H](Cc1ccc(O)cc1)C(=O)O)[C@@](O)(CC(=O)O)C(=O)O [Compound 9] | 20
33 | CCCCCCCC(=O)CCCCCCCC[C@H](C(=O)N[C@@H](Cc1ccc(O)cc1)C(=O)O)[C@@](O)(CC(=O)O)C(=O)O [Compound 10] | 245
34 | CCCCCCCC(=O)CCCCCC/C=C/[C@H](C(=O)N[C@@H](Cc1ccc(OCC=C(C)C)cc1)C(N)=O)[C@@](O)(CC(N)=O)C(N)=O [Compound 11] | 262
35 | CCCCCCCC(=O)CCCCCCCC[C@H](C(=O)N[C@@H](Cc1ccc(OCCC(C)C)cc1)C(=O)O)[C@@](O)(CC(=O)O)C(=O)O [Compound 12] | 72
36 | CCCCCCC/C(CCCCCC/C=C/[C@H](C(=O)N[C@@H](Cc1ccc(OCC=C(C)C)cc1)C(=O)O)[C@@](O)(CC(=O)O)C(=O)O)=N/OCCN [Compound 14] | 20
37 | CCCCCCCC(CCCCCC/C=C/[C@H](C(=O)N[C@@H](Cc1ccc(OCC=C(C)C)cc1)C(=O)O)[C@@](O)(CC(=O)O)C(=O)O)=NOC [Compound 15] | 20
38 | CCCCCCCC(=O)CCCCCC/C=C/[C@H](C(=O)N[C@@H](Cc1ccc(OCCCC)cc1)C(=O)O)[C@@](O)(CC(=O)O)C(=O)O [Compound 23] | 1
39 | CCCCCCCC(=O)CCCCCC/C=C/[C@H](C(=O)N[C@@H](Cc1ccc(OCCC)cc1)C(=O)O)[C@@](O)(CC(=O)O)C(=O)O [Compound 24] | 2
40 | C=CCOc1ccc(C[C@H](NC(=O)[C@@H](/C=C/CCCCCCC(=O)CCCCCCC)[C@@](O)(CC(=O)O)C(=O)O)C(=O)O)cc1 [Compound 25] | 1
41 | CCCCCCCC(=O)CCCCCC/C=C/[C@H](C(=O)N[C@@H](Cc1ccc(OC)cc1)C(=O)O)[C@@](O)(CC(=O)O)C(=O)O [Compound 26] | 3

test system: Cryptococcus neoformans; test: not given; settings: known from WO98/56755; cited from earlier work

Row | SMILES | antimicrobial activity against Cryptococcus neoformans
42 | CCCCCCCC(=O)CCCCCC/C=C/[C@H](C(=O)N[C@@H](Cc1ccc(OCC=C(C)C)cc1)C(=O)O)[C@@](O)(CC(=O)O)C(=O)O [Compound 1] | antimicrobial activity

test system: immune reactions; test: not given; settings: known from WO98/56755; cited from earlier work

Row | SMILES | effects that inhibit immune reactions
43 | CCCCCCCC(=O)CCCCCC/C=C/[C@H](C(=O)N[C@@H](Cc1ccc(OCC=C(C)C)cc1)C(=O)O)[C@@](O)(CC(=O)O)C(=O)O [Compound 1] | inhibit immune reactions
